US11117892B2, “Pyrrolo-pyridine derivative compound, method for preparing same, and pharmaceutical composition containing same as active ingredient for prevention or treatment of protein kinase-related diseases” (DAEGU-GYEONGBUK MEDICAL INNOVATION FOUNDATION, priority 2017, dated 2021)

Columns and labels:
Assay in all cases: scanMAX Kinase assay panel
Format in all cases: binding
Conditions in all cases: read-out: % control
ULK1 = ULK1 (Homo sapiens (Human), UniProt O75385)
In short: (§1)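 Using scanMAX, compound selectivity across kinases is determined. The output is % control, bounded by a DMSO control at 100% and a reference positive compound at 0%.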

NEK5 = NEK5 (Homo sapiens (Human), UniProt Q6P3R8)
In short: as §1

PIM3 = PIM3 (Homo sapiens (Human), UniProt Q86V86)
In short: as §1

PDGFRA = PDGFRA (Homo sapiens (Human), UniProt P16234)
Chain of PDGFRA (P16234 24-1089): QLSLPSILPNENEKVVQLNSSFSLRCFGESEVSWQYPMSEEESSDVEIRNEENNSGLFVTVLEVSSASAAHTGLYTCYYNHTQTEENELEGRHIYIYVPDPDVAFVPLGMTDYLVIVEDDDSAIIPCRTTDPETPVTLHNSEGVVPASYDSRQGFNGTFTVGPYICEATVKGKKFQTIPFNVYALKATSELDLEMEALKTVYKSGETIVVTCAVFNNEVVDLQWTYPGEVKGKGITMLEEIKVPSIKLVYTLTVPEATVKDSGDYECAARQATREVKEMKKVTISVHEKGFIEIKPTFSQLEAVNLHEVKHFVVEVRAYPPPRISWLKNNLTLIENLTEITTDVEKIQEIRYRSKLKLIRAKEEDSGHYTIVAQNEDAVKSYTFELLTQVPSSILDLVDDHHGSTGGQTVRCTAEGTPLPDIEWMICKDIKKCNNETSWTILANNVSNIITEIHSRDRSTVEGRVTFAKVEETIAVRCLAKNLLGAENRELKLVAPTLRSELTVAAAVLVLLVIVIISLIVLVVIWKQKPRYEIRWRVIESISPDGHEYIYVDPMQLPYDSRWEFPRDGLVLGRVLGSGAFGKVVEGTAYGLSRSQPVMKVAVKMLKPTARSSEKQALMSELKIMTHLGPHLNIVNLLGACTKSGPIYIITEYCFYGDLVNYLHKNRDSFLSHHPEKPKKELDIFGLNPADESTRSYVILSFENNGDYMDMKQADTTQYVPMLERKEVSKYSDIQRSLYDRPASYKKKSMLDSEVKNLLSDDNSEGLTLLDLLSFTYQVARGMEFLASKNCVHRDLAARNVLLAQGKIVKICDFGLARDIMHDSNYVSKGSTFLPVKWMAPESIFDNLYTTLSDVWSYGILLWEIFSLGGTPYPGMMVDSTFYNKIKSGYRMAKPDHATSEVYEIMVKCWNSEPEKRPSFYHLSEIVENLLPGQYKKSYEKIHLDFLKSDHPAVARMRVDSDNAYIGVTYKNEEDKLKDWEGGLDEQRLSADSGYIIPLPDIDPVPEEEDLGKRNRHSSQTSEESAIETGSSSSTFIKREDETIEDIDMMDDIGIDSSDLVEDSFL
In short: as §1

PDGFRB = PDGFRB (Homo sapiens (Human), UniProt P09619)
In short: as §1

SGK = SGK (Homo sapiens (Human), UniProt O00141)
In short: as §1

EPHA7 = EPHA7 (Homo sapiens (Human), UniProt Q15375)
In short: as §1

RIPK5 = RIPK5 (Homo sapiens (Human), UniProt Q6XUX3)
In short: as §1

CDK2 = CDK2 (Homo sapiens (Human), UniProt P24941)
In short: as §1

CAMK2G = CAMK2G (Homo sapiens (Human), UniProt Q13555)
In short: as §1

TNIK = TNIK (Homo sapiens (Human), UniProt Q9UKE5)
In short: as §1

[1] = target: TYK2(JH2domain-pseudokinase) (Homo sapiens (Human), UniProt P29597)
In short: as §1

[2] = target: JAK1(JH1domain-catalytic) (Homo sapiens (Human), UniProt P23458)
In short: as §1

FRK = FRK (Homo sapiens (Human), UniProt P42685)
In short: as §1

CDKL5 = CDKL5 (Homo sapiens (Human), UniProt O76039)
Chain of CDKL5 (O76039 whole entry): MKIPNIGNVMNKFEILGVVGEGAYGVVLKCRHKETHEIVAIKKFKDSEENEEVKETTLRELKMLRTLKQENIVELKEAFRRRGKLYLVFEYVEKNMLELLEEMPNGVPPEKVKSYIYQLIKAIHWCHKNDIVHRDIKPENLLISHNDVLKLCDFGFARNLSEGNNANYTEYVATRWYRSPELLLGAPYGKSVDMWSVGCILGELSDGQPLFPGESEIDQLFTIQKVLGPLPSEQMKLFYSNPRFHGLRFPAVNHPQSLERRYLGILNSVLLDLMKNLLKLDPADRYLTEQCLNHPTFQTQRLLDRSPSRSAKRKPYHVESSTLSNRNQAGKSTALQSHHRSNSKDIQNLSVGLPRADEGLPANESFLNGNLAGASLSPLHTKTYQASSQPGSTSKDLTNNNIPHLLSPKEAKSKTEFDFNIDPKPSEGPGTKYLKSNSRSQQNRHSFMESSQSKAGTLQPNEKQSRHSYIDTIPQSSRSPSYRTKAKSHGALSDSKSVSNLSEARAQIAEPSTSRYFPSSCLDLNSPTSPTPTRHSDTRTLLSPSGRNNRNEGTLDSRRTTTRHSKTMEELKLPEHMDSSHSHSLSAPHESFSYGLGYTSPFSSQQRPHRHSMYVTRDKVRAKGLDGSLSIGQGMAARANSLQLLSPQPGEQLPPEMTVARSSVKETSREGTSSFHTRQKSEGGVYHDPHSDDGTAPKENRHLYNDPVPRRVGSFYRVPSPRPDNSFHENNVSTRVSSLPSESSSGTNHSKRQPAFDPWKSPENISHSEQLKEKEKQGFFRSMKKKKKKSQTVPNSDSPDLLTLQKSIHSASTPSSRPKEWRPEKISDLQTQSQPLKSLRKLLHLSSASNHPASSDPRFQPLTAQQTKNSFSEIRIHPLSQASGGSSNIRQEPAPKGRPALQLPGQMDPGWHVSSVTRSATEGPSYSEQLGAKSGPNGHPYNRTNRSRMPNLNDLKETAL
In short: as §1

ROS1 = ROS1 (Homo sapiens (Human), UniProt P08922)
In short: as §1

ERBB4 = ERBB4 (Homo sapiens (Human), UniProt Q15303)
In short: as §1

ALK(C1156Y) = ALK(C1156Y) (Homo sapiens (Human), UniProt Q9UM73, C1156Y)
In short: as §1

ACVR2B = ACVR2B (Homo sapiens (Human), UniProt Q13705)
Chain of ACVR2B (Q13705 19-512): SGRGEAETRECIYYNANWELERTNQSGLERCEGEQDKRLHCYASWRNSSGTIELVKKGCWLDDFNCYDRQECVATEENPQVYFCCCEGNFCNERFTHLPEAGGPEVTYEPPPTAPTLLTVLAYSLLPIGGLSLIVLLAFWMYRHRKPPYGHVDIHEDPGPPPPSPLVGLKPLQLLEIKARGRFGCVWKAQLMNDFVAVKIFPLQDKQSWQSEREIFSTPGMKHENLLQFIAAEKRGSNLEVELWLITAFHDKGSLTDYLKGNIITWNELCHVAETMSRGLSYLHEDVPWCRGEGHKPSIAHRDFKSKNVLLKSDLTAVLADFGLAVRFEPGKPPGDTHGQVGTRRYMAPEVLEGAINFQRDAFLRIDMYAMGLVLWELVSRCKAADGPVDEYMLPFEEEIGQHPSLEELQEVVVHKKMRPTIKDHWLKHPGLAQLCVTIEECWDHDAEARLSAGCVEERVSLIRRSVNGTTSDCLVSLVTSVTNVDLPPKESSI
In short: as §1

PLK4 = PLK4 (Homo sapiens (Human), UniProt O00444)
In short: as §1

RIPK2 = RIPK2 (Homo sapiens (Human), UniProt O43353)
In short: as §1

AMPK-alpha2 = AMPK-alpha2 (Homo sapiens (Human), UniProt P54646)
Chain of AMPK-alpha2 (P54646 whole entry): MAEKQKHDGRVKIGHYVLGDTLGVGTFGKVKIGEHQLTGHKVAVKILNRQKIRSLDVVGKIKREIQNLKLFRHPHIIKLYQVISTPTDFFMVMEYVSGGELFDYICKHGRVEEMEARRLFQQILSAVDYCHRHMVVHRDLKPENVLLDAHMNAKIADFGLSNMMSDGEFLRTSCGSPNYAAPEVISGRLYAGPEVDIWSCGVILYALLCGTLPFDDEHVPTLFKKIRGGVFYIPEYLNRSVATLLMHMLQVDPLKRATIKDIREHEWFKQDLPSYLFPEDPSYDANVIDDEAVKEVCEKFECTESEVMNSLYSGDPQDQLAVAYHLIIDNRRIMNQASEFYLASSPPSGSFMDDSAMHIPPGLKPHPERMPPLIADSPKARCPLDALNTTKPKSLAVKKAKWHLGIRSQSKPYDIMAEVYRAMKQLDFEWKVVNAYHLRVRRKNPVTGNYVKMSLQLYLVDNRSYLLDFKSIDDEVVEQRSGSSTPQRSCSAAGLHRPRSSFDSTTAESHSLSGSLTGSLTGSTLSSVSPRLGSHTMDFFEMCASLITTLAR
In short: as §1

FLT3-autoinhibited = FLT3-autoinhibited (Homo sapiens (Human), UniProt P36888)
In short: as §1

DMPK = DMPK (Homo sapiens (Human), UniProt Q09013)
In short: as §1

HIPK4 = HIPK4 (Homo sapiens (Human), UniProt Q8NE63)
In short: as §1

FGFR3(G697C) = FGFR3(G697C) (Homo sapiens (Human), UniProt P22607, G697C)
In short: as §1

PKAC-beta = PKAC-beta (Homo sapiens (Human), UniProt P22694)
In short: as §1

AKT3 = AKT3 (Homo sapiens (Human), UniProt Q9Y243)
In short: as §1

PIK3CA(E545A) = PIK3CA(E545A) (Homo sapiens (Human), UniProt P42336, E545A)
In short: as §1

PIP5K2C = PIP5K2C (Homo sapiens (Human), UniProt Q8TBX8)
In short: as §1

[3] = target: ABL1(F317L)-phosphorylated (Homo sapiens (Human), UniProt P00519, F317L)
In short: as §1

IRAK3 = IRAK3 (Homo sapiens (Human), UniProt Q9Y616)
In short: as §1

PHKG2 = PHKG2 (Homo sapiens (Human), UniProt P15735)
In short: as §1

SRC = SRC (Homo sapiens (Human), UniProt P12931)
In short: as §1

YSK4 = YSK4 (Homo sapiens (Human), UniProt Q56UN5)
Chain of YSK4 (Q56UN5 whole entry): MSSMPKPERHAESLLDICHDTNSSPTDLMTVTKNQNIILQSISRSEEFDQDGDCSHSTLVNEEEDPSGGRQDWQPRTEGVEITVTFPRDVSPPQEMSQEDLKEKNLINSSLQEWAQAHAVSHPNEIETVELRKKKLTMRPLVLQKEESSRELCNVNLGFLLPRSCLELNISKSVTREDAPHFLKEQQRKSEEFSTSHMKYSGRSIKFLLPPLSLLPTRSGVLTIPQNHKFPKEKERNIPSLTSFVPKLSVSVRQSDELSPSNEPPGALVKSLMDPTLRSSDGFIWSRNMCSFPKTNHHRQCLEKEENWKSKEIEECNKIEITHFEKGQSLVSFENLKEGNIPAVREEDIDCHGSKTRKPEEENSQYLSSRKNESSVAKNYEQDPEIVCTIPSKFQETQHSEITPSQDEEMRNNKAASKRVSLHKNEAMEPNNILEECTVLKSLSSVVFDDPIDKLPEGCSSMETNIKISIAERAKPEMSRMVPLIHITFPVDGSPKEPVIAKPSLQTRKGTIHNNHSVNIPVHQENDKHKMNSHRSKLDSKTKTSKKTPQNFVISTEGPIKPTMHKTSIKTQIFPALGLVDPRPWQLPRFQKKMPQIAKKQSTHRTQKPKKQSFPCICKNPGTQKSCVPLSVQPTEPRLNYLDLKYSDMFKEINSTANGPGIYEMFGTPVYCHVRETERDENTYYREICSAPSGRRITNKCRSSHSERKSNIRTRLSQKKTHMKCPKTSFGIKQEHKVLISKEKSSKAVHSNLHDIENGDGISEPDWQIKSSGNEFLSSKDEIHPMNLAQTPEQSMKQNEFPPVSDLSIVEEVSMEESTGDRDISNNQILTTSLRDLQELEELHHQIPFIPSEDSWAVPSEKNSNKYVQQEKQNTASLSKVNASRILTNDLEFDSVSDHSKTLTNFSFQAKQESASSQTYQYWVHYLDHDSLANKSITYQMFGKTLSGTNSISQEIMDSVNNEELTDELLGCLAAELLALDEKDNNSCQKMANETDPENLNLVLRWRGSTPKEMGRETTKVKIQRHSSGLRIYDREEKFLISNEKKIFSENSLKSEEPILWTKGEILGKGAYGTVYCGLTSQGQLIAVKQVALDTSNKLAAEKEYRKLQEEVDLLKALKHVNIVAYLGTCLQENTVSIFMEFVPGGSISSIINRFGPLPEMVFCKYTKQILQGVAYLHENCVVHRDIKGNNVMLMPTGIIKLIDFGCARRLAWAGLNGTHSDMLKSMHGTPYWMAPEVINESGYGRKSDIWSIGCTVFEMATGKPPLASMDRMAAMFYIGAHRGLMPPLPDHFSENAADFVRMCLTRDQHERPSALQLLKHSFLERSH
In short: as §1

KIT = KIT (Homo sapiens (Human), UniProt P10721)
In short: as §1

CDK8 = CDK8 (Homo sapiens (Human), UniProt P49336)
In short: as §1

VRK2 = VRK2 (Homo sapiens (Human), UniProt Q86Y07)
Chain of VRK2 (Q86Y07 whole entry): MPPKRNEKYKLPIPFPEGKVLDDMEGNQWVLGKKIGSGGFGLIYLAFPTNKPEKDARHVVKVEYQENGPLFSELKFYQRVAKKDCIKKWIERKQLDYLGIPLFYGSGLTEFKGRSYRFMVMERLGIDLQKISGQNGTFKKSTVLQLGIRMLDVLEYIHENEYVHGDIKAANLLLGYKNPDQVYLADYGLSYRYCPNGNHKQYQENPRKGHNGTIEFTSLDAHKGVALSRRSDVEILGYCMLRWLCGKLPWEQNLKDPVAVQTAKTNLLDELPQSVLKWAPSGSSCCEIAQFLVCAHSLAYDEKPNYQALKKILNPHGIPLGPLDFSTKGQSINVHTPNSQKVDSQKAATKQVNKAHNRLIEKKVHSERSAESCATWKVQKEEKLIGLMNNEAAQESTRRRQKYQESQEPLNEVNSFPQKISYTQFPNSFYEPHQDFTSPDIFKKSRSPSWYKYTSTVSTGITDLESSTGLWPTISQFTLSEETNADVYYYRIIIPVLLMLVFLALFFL
In short: as §1

SRPK1 = SRPK1 (Homo sapiens (Human), UniProt Q96SB4)
In short: as §1

In the case of `CCNc1cc(Nc2ccc(C(=O)N3CCC(N4CCOCC4)CC3)cc2OC)nc2[nH]cc(C(F)(F)F)c12` [Example 57, (4-((4-(ethylamino)-3-(trifluoromethyl)-1H-pyrrolo[2,3-b]pyridin-6-yl)amino)-3-methoxyphenyl) (4-morpholinopiperidin-1-yl)methanone], the remaining binding at 1 µM (ULK1) is reported as 94%, the remaining binding at 1 µM (NEK5) is reported as 91% and the remaining binding at 1 µM (PIM3) is reported as 78%. It also gave a remaining binding at 1 µM (PDGFRA) of 100%, a remaining binding at 1 µM (PDGFRB) of 92% and a remaining binding at 1 µM (SGK) of 100%. It also gave a remaining binding at 1 µM (EPHA7) of 100%, a remaining binding at 1 µM (RIPK5) of 79% and a remaining binding at 1 µM (CDK2) of 100%. For the same molecule, the remaining binding at 1 µM (CAMK2G) was 72%, the remaining binding at 1 µM (TNIK) was 94% and the remaining binding at 1 µM [1] was 100%. It also gave a remaining binding at 1 µM [2] of 97%, a remaining binding at 1 µM (FRK) of 92% and a remaining binding at 1 µM (CDKL5) of 91%. For the same molecule, the remaining binding at 1 µM (ROS1) was 69%, the remaining binding at 1 µM (ERBB4) was 82% and the remaining binding at 1 µM (ALK(C1156Y)) was 3.5%. It also gave a remaining binding at 1 µM (ACVR2B) of 98%, a remaining binding at 1 µM (PLK4) of 47% and a remaining binding at 1 µM (RIPK2) of 94%. It also gave a remaining binding at 1 µM (AMPK-alpha2) of 98%, a remaining binding at 1 µM (FLT3-autoinhibited) of 92% and a remaining binding at 1 µM (DMPK) of 100%. It also gave a remaining binding at 1 µM (HIPK4) of 86%, a remaining binding at 1 µM (FGFR3(G697C)) of 78% and a remaining binding at 1 µM (PKAC-beta) of 92%. It also gave a remaining binding at 1 µM (AKT3) of 96%, a remaining binding at 1 µM (PIK3CA(E545A)) of 77% and a remaining binding at 1 µM (PIP5K2C) of 71%. The remaining binding at 1 µM [3] was 100%, the remaining binding at 1 µM (IRAK3) was 79% and the remaining binding at 1 µM (PHKG2) was 23%. It also gave a remaining binding at 1 µM (SRC) of 100%, a remaining binding at 1 µM (YSK4) of 100% and a remaining binding at 1 µM (KIT) of 91%. The remaining binding at 1 µM (CDK8) was 90%, the remaining binding at 1 µM (VRK2) was 100% and the remaining binding at 1 µM (SRPK1) was 85%.

With `CCNc1cc(Nc2ccc(C(=O)N3CCC(N4CCOCC4)CC3)cc2OC)nc2[nH]cc(C#N)c12` [Example 18, 4-(ethylamino)-6-((2-methoxy-4-(4-morpholinopiperidine-1-carbonyl)phenyl)amino)-1H-pyrrolo[2,3-b]pyridine-3-carbonitrile] the remaining binding at 1 µM (ULK1) was 78%, the remaining binding at 1 µM (NEK5) was 92% and the remaining binding at 1 µM (PIM3) was 78%. For the same molecule, the remaining binding at 1 µM (PDGFRA) was 77%, the remaining binding at 1 µM (PDGFRB) was 76% and the remaining binding at 1 µM (SGK) was 64%. The remaining binding at 1 µM (EPHA7) was 94%, the remaining binding at 1 µM (RIPK5) was 18% and the remaining binding at 1 µM (CDK2) was 100%. The remaining binding at 1 µM (CAMK2G) was 77%, the remaining binding at 1 µM (TNIK) was 89% and the remaining binding at 1 µM [1] was 67%. The remaining binding at 1 µM [2] was 100%, the remaining binding at 1 µM (FRK) was 94% and the remaining binding at 1 µM (CDKL5) was 100%. It also gave a remaining binding at 1 µM (ROS1) of 83%, a remaining binding at 1 µM (ERBB4) of 85% and a remaining binding at 1 µM (ALK(C1156Y)) of 2.4%. It also gave a remaining binding at 1 µM (ACVR2B) of 100%, a remaining binding at 1 µM (PLK4) of 40% and a remaining binding at 1 µM (RIPK2) of 86%. It also gave a remaining binding at 1 µM (AMPK-alpha2) of 100%, a remaining binding at 1 µM (FLT3-autoinhibited) of 82% and a remaining binding at 1 µM (DMPK) of 81%. The remaining binding at 1 µM (HIPK4) was 100%, the remaining binding at 1 µM (FGFR3(G697C)) was 88% and the remaining binding at 1 µM (PKAC-beta) was 66%. The remaining binding at 1 µM (AKT3) was 96%, the remaining binding at 1 µM (PIK3CA(E545A)) was 100% and the remaining binding at 1 µM (PIP5K2C) was 16%. The remaining binding at 1 µM [3] was 100%, the remaining binding at 1 µM (IRAK3) was 84% and the remaining binding at 1 µM (PHKG2) was 12%. For the same molecule, the remaining binding at 1 µM (SRC) was 100%, the remaining binding at 1 µM (YSK4) was 6.7% and the remaining binding at 1 µM (KIT) was 49%. For the same molecule, the remaining binding at 1 µM (CDK8) was 100%, the remaining binding at 1 µM (VRK2) was 87% and the remaining binding at 1 µM (SRPK1) was 89%.
